PubChem BioAssay (NCI)
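Five concentrations, 48 hours, 96-well plates. At the GI50, growth is halved. The concentration for full growth arrest is given as TGI.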

Tested on: MDA-MB-468 breast
Assay: NCI-60 cell line screen, 48 h

| Compound | GI50 | TGI |
| --- | --- | --- |
| CC1CN1CC(O)C(O)CN1CC1C (configuration not stated) | 0.278 µM | 1.68 µM |
| NC(=S)N/N=C/c1ccc(OC(=O)COc2ccc(Cl)cc2)cn1 | 2.54 µM | 9.59 µM |
| COc1cc(C2=NN(C(C)=O)C(c3ccc(OC(C)=O)cc3OC(C)=O)O2)c(OC(C)=O)c2ccccc12 (configuration not stated) | 1.06 µM | 6.58 µM |
| CCS(=O)(=O)c1ccc(OC)c(Nc2ncc(-c3cccc(OC)c3)o2)c1 | 10.5 µM | > 25 µM |
| CC(C)c1ccc(C(=O)Nc2sc3c(c2C(N)=O)CCC(=O)C3)cc1 | 0.453 µM | 1.81 µM |
| Cc1ccc(C(=NN=C(N)N)c2ccc(C)cc2)cc1 | 0.232 µM | 0.75 µM |
| COc1cc(OC)c(/C=C/C(=O)c2c(OC)cccc2OC)c(OC)c1 | 0.394 µM | 3.16 µM |
| CCS(=O)(=O)c1ccc(OC)c(Nc2ncc(-c3cccc(C(C)=O)c3)o2)c1 | 3.46 µM | > 25 µM |
| CCC#CC[C@H]1C/C=C2/C(=O)C=C[C@@H]2C/C=C\CCCC(=O)O1 | 0.928 µM | 5.47 µM |
| O=C(Nc1ccc(Cl)cc1)c1cc(-c2ccc(F)cc2)c2sc(=O)[nH]c2n1 | 0.687 µM | 4.97 µM |
| CCOC(=O)c1cc(/C(=N\O)c2cc(OC)c(OC)c(OC)c2)n2cc(C)cc(C)c12 | 1.46 µM | 4.79 µM |
| O=C(N/N=C/c1cccc(O)c1O)c1ccccc1 | 1.29 µM | 11.1 µM |
| COc1cc(NC(=O)c2cc(O)c(CC=C(C)C)c(O)c2)cc2c1O[C@]1(C)CC[C@@H](O)C(C)(C)[C@H]1C2 | 3.42 µM | 19.8 µM |
| CCCCN=C(N)c1ccc(OCCSCCOc2ccc(C(N)=NCCCC)cc2)cc1 | 0.36 µM | 3.87 µM |
| Cc1cc(C)c(C(=O)CC(=O)c2cccnc2)c(C)c1 | 8.68 µM | 49.8 µM |
| COC(=O)Nc1nc2ccc(Oc3ccc(NC(=O)Nc4ccccc4)cc3)cc2[nH]1 | 0.0561 µM | 0.489 µM |
| O=C(c1cccc(O)c1O)c1cn(Cc2ccc(F)cc2)c2cccc(O)c12 | 5.46 µM | 21.7 µM |
| CCN(CC)c1ccc(C(=N)c2ccc(N(CC)CC)cc2)cc1 | 0.312 µM | 1.43 µM |
| Nc1ncc(-c2cnn(CCO)c2)c2scc(-c3ccc(NC(=O)Nc4cccc(F)c4)cc3)c12 | 0.443 µM | 5.66 µM |
| COc1ccc(C(=O)c2cc(C)c(OC)c(C)c2)c(OC)c1N(C(=O)C(Cl)Cl)C(=O)C(Cl)Cl | 0.0259 µM | 0.0926 µM |
| COc1ccc(C(=O)COc2cccc(/C=C3\COc4ccc5ccccc5c4C3=O)c2)cc1 | 2.36 µM | 12.3 µM |
